Results reported in patent publication US6489165B2, “Chondrocyte-like cells useful for tissue engineering and methods” (The Regents of the University of California, priority 1997, dated 2002).

What was measured:
[1] = system: Human dermal fibroblasts; experiment: Cell morphology in high density micromass cultures by microscopy; assay type: cell-based
Experimental: (§1) Experiments were designed to examine the effects of functional hypoxia and high density culture conditions on the phenotype of dermal fibroblasts. Human dermal fibroblasts obtained from neonatal foreskin samples were cultured in high density micromass cultures. Briefly, a 10 μl drop of a cell solution at a concentration of 2.0×10^4-4.0×10^4 cells/μl was plated in a 24-well polystyrene tissue culture dish. The cultures were incubated for one hour at 37° C., 5% CO2 to allow the cells to adhere to the bottom of the wells and to enhance cell:cell interactions. Following incubation, the cells were flooded with 1 ml of medium (bringing the final concentration to 2.0×10^5 to 4.0×10^5 cells/ml) containing exogenous factors that promote differentiation along the chondrogenic pathway. Cultures were made functionally hypoxic by the addition of lactate (10-40 mM) to the culture medium. The cells were cultured for a period of 24 hours.
Human neonatal foreskin fibroblasts (HFFs) were cultured in high density micromasses (2.0×10^7 cells/ml in 10 μl) and treated with 40 mM lactic acid and 200 nM staurosporine for a period of 24 hours as previously described by Examples 1 and 2. […]

[2] = system: Human neonatal foreskin fibroblasts (HFFs); experiment: Immunohistochemical detection of matrix proteins in micromass cultures; assay type: cell-based
Experimental: Human neonatal foreskin fibroblasts (HFFs) were cultured in high density micromasses (2.0×10^7 cells/ml in 10 μl) and treated with 40 mM lactic acid and 200 nM staurosporine for a period of 24 hours as previously described by Examples 1 and 2. After the initial culture period, the cells were maintained in chemically defined medium consisting of minimum essential medium supplemented with a 1× mixture of Insulin-Transferrin-Selenium (Life Technologies, Gibco BRL, Gaithersburg, Md.), 4.5 g/l glucose, 10 mM β-glycerophosphate, and antibiotics. Dermal fibroblasts isolated from donor tissue were similarly cultured. Additionally, dermal fibroblasts were seeded on three-dimensional polymer scaffolds composed of a non-woven polyglycolic acid (PGA) (Davis and Geck, Danbury, Conn.) mesh reinforced in a dilute solution of 100 kDa poly(L-lactic acid) (PLLA) (Polysciences, Warrington, Pa.).
(§2) The production of sulfated proteoglycans was assessed by staining with 1% Alcian blue dye (pH 1.0), while monoclonal antibodies to collagen types I (Rockland, Gilbertsville, Pa.) and II (CIICl, Developmental Studies Hybridoma Bank, Iowa City, Iowa), aggrecan (Chemicon, Temecula, Calif.), and cartilage link protein (9/30/8-A-4, DSHB) were used for immuno-histochemical detection employing the Histostain-Plus king (Zymed, South San Francisco, Calif.) with a DAB substrate for final visualization. The expression of type I collagen and transforming growth factor-β1 (TGF-β1) was detected by northern hybridization. Cell-polymer composites were analyzed by scanning electron microscopy and were embedded in glycol methacrylate, sectioned, and stained with hematoxylin and eosin.

[3] = system: Human dermal fibroblasts; experiment: Alcian blue staining of sulfated proteoglycan in monolayer or micromass cultures; assay type: cell-based; details: high density micromass, 40 mM lactate, 24 hours, vs untreated and monolayer cultures, P<0.05
Experimental: as §1
Matrix Deposition. Treated micromass cultures synthesized highly negatively charged sulfated proteoglycan aggregates, as detected using histological and biochemical methods. […] The intensity of Alcian blue staining from guanidine-HCl extracts was measured using a microplate reader at a wavelength of 595 nm.
The expression of type I collagen and transforming growth factor-β1 (TGF-β1) was detected by northern hybridization.

[4] = system: Human dermal fibroblasts; details: 20 mM lactate; cited from earlier work
[5] = system: Human dermal fibroblasts; experiment: [35S]-sulfate incorporation (normalized to [3H]-thymidine) in micromass cultures; assay type: cell-based
Experimental: Thus, human dermal fibroblasts were seeded in monolayer or micromass cultures at a density of 2.0×10^5 cell/ml for 24 hours and left untreated or treated with 40 mM lactate to induce hypoxia. Cultures were labeled with [^3H]-thymidine at 2 μCi/ml and Na2^35SO4 at 5 μCi/ml 24 hours prior to harvest. Relative levels of [^35S]-sulfate uptake (ratio of [^35S]-sulfate to [^3H]-thymidine) were determined by liquid scintillation counting of soluble cell extracts using a dual label DPM counting program. […] Human dermal fibroblasts were seeded in high density micromass cultures at a density of 2.0×10^5 cell/ml, treated with lactate at varying concentrations (0-80 mM) for a 24 hour period, and labeled with [^35S]-sulfate.

[6] = system: Human dermal fibroblasts; experiment: Northern hybridization of total cellular RNA with DIG-labeled probes; assay type: cell-based
Experimental: Gene Expression. […] The expression of TGF-β1 was also examined in cells cultured under identical conditions. […] Human dermal fibroblasts were cultured in monolayer without or with 40 mM lactate or in micromass cultures without or with 40 mM lactate at a density of 3.0×10^5 cell/ml for 24 hours. Total cellular RNA extracted using the Ultraspec isolation system (Biotecx Laboratories, Inc., Houston, Tex.) and fractionated by formaldehyde-agarose gel electrophoresis was hybridized with DIG-labeled probes to human chondroitin sulfate proteoglycan (aggrecan) core protein and TGF-β1. An equal amount of RNA (5 μg) was loaded in each lane and 28s ribosomal RNA served as an internal control.
Human dermal fibroblasts were cultured in monolayer without or with 40 mM lactate or in micromass cultures without or with 40 mM lactate at a density of 2.0×10^5 cell/ml for 24 hours. Total cellular RNA extracted using the Ultraspec isolation system (Biotecx Laboratories, Inc., Houston, Tex.) and fractionated by formaldehyde-agarose gel electrophoresis was hybridized with a DIG-labeled probe to human type I collagen. An equal amount of RNA (5 μg) was loaded in each lane and 28s ribosomal RNA served as an internal control.
Human dermal fibroblasts were seeded in micromass cultures at a density of 2.0×10^5 cells/ml for 24 hours in the presence of 40 mM lactate and varying concentrations of the protein kinase C inhibitors, staurosporine (0, 50, 100, 150, and 200 nM in lanes 1-5, respectively). Total cellular RNA extracted using the Ultraspec isolation system (Biotecx Laboratories, Inc., Houston, Tex.) and fractionated by formaldehyde-agarose gel electrophoresis was hybridized with DIG-labeled probes to human chondroitin sulfate proteoglycan (aggrecan) core protein and type I collagen. An equal amount RNA (5 μg) was loaded in each lane and 28s ribosomal RNA served as an internal control.
as §2

[7] = system: fibroblast micromass cultures; experiment: Cell viability by direct microscopic observation; assay type: cell-based, human; details: staurosporine alone without lactate priming, at otherwise effective doses
Text: Accordingly, practice of the invention includes treating the cells with the second agent so as to allow a PKA-dependent antagonistic pathway to predominate and to drive chondrogenic differentiation. Suitable chondrogenic differentiation agents include Bisindolylmaleimide I and calphostin C. PKA activators such as dibutyryl cAMP and adenylate cyclase activators (which results in cAMP production and PKA activity) like forskolin may also be effective. A preferred such agent is staurosporine (a protein kinase inhibitor to which PKC is most sensitive), preferably in a range of 150-200 nM.

[8] = whole mount micromass cultures, after three days
[9] = micromass 2.0×10^5 cell/ml, lactate 0-80 mM, 24 hours
[10] = micromass 3.0×10^5 cell/ml, 40 mM lactate, 24 hours, vs untreated and monolayer

Compound	fibroblast outgrowth from the micromass cultures ([1]; 40 mM lactate as compared to 20 mM lactate)	type I collagen immunostaining ([2]; micromass cultures)	aggrecan immunostaining [2, 8]	cartilage link protein immunostaining [2, 8]	intensity of Alcian blue staining (sulfated proteoglycan content), 595 nm [3]	hyaluronan synthesis [4]	relative [35S]-sulfate incorporation (ratio to [3H]-thymidine) ([5]; high density micromass, 40 mM lactate, 24 hours, vs corresponding cultures, P<0.05)	lactate concentration at which sulfate uptake peaks [5, 9] [mM]	sulfate uptake versus lactate concentration [5, 9]	TGF-β1 expression levels ([6]; HFFs on PGA/PLLA discs, all groups)	expression of type I collagen ([6]; HFFs on PGA/PLLA discs, treated vs untreated control)	type I collagen gene expression ([6]; micromass 2.0×10^5 cell/ml, 40 mM lactate, 24 hours)	TGF-β1 gene expression [6, 10]	aggrecan core protein gene expression [6, 10]	visible effect in lactate-treated micromass cultures ([1]; staurosporine about 5-20 nM)	sulfate incorporation ([5]; staurosporine alone without lactate priming, at otherwise effective doses)	cell viability [7]	aggrecan core protein gene expression ([6]; micromass, 40 mM lactate plus 150 nM staurosporine, 24 hours)	aggrecan core protein gene expression ([6]; micromass, 40 mM lactate plus 200 nM staurosporine, 24 hours)	type I collagen gene expression ([6]; micromass, 40 mM lactate plus staurosporine 50-200 nM (all supplemented cultures), 24 hours)
CC(O)C(=O)O (centres unmarked) [lactate]	less fibroblast outgrowth	only on the periphery	Minimal staining	Minimal staining	significantly greater degree of staining	increased	Significantly greater levels	20 to 40	dose-dependent increase	remained similar in all groups	greater in untreated control cultures	noticeable decrease	marked increase	marked increase	–	–	–	–	–	–
CN[C@@H]1C[C@H]2O[C@@](C)([C@@H]1OC)n1c3ccccc3c3c4c(c5c6ccccc6n2c5c31)C(=O)NC4 [staurosporine]	–	–	–	–	–	–	–	–	–	–	–	–	–	–	no visible effect	decreased levels	deleterious effect	notable increase	notable increase	marked decrease
